The values below come from article PMC5234776, “Study of the Antimicrobial Activity of Tilapia Piscidin 3 (TP3) and TP4 and Their Effects on Immune Functions in Hybrid Tilapia (Oreochromis spp.)” (PLoS ONE, 2017).

Series [1] is described as follows: in vivo. The note with it: iv, 0.2 mg/kg. Set-up: species or system tilapia (Oreochromis hybrids, Tilapia spp.). The procedure:
The peptide half-life of TP3 and TP4 were investigated in male tilapia (Oreochromis hybrids, Tilapia spp., with a mean body length of 32.33±1.5 cm and a mean body weight of 1117±78.2 g) after intravenous administration of a single dose of 0.2 mg/kg of peptide. The TP3 and TP4 concentrations in serum samples were determined at 10, 30, 60, 120, 180, 240, 300, and 360 minutes for TP3 and at 10, 60, 120, 180, 240, 300, and 360 minutes after dosing for TP4. At each sample collection time point, we anesthetized three fish and collected their blood. The blood was centrifuged to obtain fish serum, which was assessed by liquid chromatography-mass spectrometry/mass spectrometry (LC-MS/MS) at Mission Biotech (Taipei, Taiwan).

Series [2] relates to IL-1β, IL-6, IL-8, Mcp-8, β-defensin. As to the kind of experiment: qPCR of immune-related gene expression in tilapia liver and spleen. It is filed as in vivo, tilapia (Oreochromis spp.). The note with it: in words; for expression of immune-related genes IL-1β, IL-6, IL-8 and MCP-8: co-treatment or peptide treatment alone; for expression of TP2, TP3, TP4 or β-defensin antimicrobial peptide genes in liver: peptide alone or co-treatment, 3 hours after treatment. As for the experimental part:
Total RNA was isolated from the tilapia by peptide treatment before, concurrent with and after infection as described above. The groups included one that was only injected with V. vulnificus (2×10^5 CFU/fish) and one that was only injected with peptides (20 μg/fish). Samples were collected at 3, 6, 12, 24, and 48 hours after treatment to extract RNA, and the levels of tilapia total RNA obtained from the liver and spleen were determined with comparative real-time qRT-PCR analysis of all experimental groups. Real-time qRT-PCR was used to detect the levels of IL-1β (GenBank accession no. DQ061114.1), IL-6 (GenBank accession no. XM_005478656), IL-8 (GenBank accession no. NM001279706), Mcp-8 (GenBank accession no. XM_005478749) and β-defensin (GenBank accession no. KF294753). mRNA was isolated and transcribed into complementary first strands (c) according to previously published methods for real-time comparative qPCR to obtain DNA and detect the relative expression levels of each gene. All samples were examined in triplicate using a sample size of five tilapia. The reactions used to analyze gene expression consisted of 0.05 μg of total RNA. Comparative qRT-PCR Mastermix for the SYBR Green kit (Applied Biosystems, Perkin-Elmer) was used for quantification. The total reaction volume was 20 μl; the reactions were run in 96-well plates; and the program consisted of 40 cycles of 3 seconds at 95°C and 20 seconds at 60°C. We added a dissociation thermal start temperature of […] to each experiment to analyze the melting peaks of the generated PCR products. The data from each experiment were expressed as a ratio of the specific target gene expression/β-actin RNA expression. We used t-tests to compare groups, and multiple group comparisons were tested by ANOVA in SPSS software. Differences were defined as significant at P<0.05 (*), <0.01 (**), and <0.001 (***).

Series [3] deals with tilapia. Briefly: Toxicity of peptide alone, tilapia survival. It is filed as in vivo, tilapia (Oreochromis spp.). The following applies: abdominal cavity, no infection, seven days (S2 Fig). The procedure:
The antimicrobial activities of TP3 and TP4 peptides were analyzed in tilapia infected with lethal amounts of bacteria. Different amounts of V. vulnificus were injected into the abdominal cavities of the fish, and survival rates were recorded as cumulative percentages (S1 Fig). To determine whether TP3 and TP4 had any toxic effects on the tilapia, we injected different doses of TP3 and TP4 (0.1, 1, 10, 20, 30, 40, or 50 μg/fish) into the abdominal cavity and recorded the cumulative survival percentage of the fish (S2 Fig). We also co-treated tilapia with different doses (0.1, 1, 10, 20 μg/fish) of TP3 or TP4 combined with 2x10^4 CFU of V. vulnificus to evaluate tilapia survival following treatment. […] After 14, 21, or 28 days following the first co-treatment with TP3, the tilapia that survived in the 20 μg/fish TP3 experimental group were injected with a second dose of 2x10^4 CFU of V. vulnificus, and the survival rates were measured for another seven days. […] In the co-treatment experiments, at 14, 21, or 28 days after the first co-treatment with TP4, the surviving tilapia in the 20 μg/fish TP4 experimental group received a second injection of 2x10^4 CFU of V. vulnificus, and the survival rates were measured for another seven days.
Supplementary file pone.0169678.s002.pdf: S2 Fig Determination of tilapia survival rates seven days after injection with different concentrations of TP3 or TP4. (a) The survival rates of tilapia injected with TP3 at a dose of 0.1 μg/fish, 1 μg/fish, or 10 μg/fish. (b) The percentage of tilapia surviving after injection with TP4 at 0.1 μg/fish, 1 μg/fish, or 10 μg/fish. (c) The percentage of tilapia surviving after injection with TP3 at 20 μg/fish, 30 μg/fish, 40 μg/fish, or 50 μg/fish. (d) The percentage of tilapia surviving after injection with TP4 at 20 μg/fish, 30 μg/fish, 40 μg/fish, or 50 μg/fish. The control group (control) was injected with PBS alone. (PDF) Click here for additional data file.

The subject of series [4] is V. vulnificus. It is filed as cell-based, Vibrio vulnificus. As for the experimental part: To understand the effects of pH on TP3 or TP4, the reagents were dissolved in ddH2O, 1 M HCl or 1 M NaOH to obtain solutions with different pH values. For the temperature-dependent functional study, the TP3 or TP4 was added to a solution in a water bath (Basic life, model BL3002, Taiwan) and incubated for 60 minutes at different temperatures (40, 60, 80, or 100°C). To evaluate the effects of TP3 and TP4 on pepsin and trypsin function, each peptide was incubated for 10 or 30 minutes with different concentrations of pepsin or trypsin (0.1, 1, or 10 μg/ml), and we determined the MIC values after incubating these solutions with cells at 28°C for 720 minutes, according to a previously described MIC experimental protocol.

Molecules are shown by their SMILES. Read-outs that look alike come from different tables or passages of the source. Peptide text beside a SMILES is read from it.

As for `CC[C@H](C)[C@H](NC(=O)[C@H](CC(C)C)NC(=O)[C@H](CO)NC(=O)[C@H](Cc1c[nH]cn1)NC(=O)[C@@H](NC(=O)[C@H](Cc1c[nH]cn1)NC(=O)[C@H](CCCCN)NC(=O)CNC(=O)[C@@H](NC(=O)[C@H](CO)NC(=O)[C@H](Cc1ccccc1)NC(=O)[C@H](CC(C)C)NC(=O)CNC(=O)CNC(=O)[C@@H](NC(=O)[C@@H](NC(=O)[C@H](Cc1c[nH]cn1)NC(=O)[C@H](Cc1c[nH]cn1)NC(=O)[C@@H](NC(=O)[C@@H](N)Cc1ccccc1)[C@@H](C)CC)[C@@H](C)CC)[C@@H](C)CC)C(C)C)[C@@H](C)CC)C(=O)N[C@@H](Cc1c[nH]cn1)C(=O)NCC(=O)N[C@@H](Cc1c[nH]cn1)C(=O)O` [TP3, tilapia piscidin 3] (H-FIHHIIGGLFSVGKHIHSLIHGH-OH), the “half-life of the injected peptide in tilapia serum” value in series [1] lay within 2 to 3 h. Besides, the “expression of immune-related genes IL-1β, IL-6, IL-8 and MCP-8” value in series [2] is recorded as “down-regulation”. Besides, the “expression of TP2, TP3, TP4 or β-defensin antimicrobial peptide genes in liver” value in series [2] was “down-regulated”. The “IL-1β, IL-6, IL-8, Mcp-8 and β-defensin gene expression in liver” value in series [2] (pre-treatment and post-treatment groups, three hours after infection with V. vulnificus) was “significantly higher levels”. The “IL-1β, IL-6, IL-8 and β-defensin gene expression in spleen” value in series [2] (pre-treatment and post-treatment, three hours after infection) is recorded as “significant increase”. The “percent survival after injection of peptide only” value in series [3] (20 μg/fish) came to 86.7%; in series [3] (30 μg/fish), 73.3%; in series [3] (40 μg/fish) it was 66.7%; in series [3] (50 μg/fish) it was 56.7%.

Take `CC[C@H](C)[C@H](NC(=O)[C@H](C)NC(=O)[C@H](CCCCN)NC(=O)CNC(=O)[C@H](C)NC(=O)[C@H](CO)NC(=O)[C@H](Cc1ccccc1)NC(=O)[C@H](CC(C)C)NC(=O)CNC(=O)CNC(=O)[C@@H](NC(=O)[C@@H](NC(=O)[C@H](Cc1c[nH]cn1)NC(=O)[C@H](Cc1c[nH]cn1)NC(=O)[C@@H](NC(=O)[C@@H](N)Cc1ccccc1)[C@@H](C)CC)[C@@H](C)CC)[C@@H](C)CC)C(=O)N[C@@H](Cc1c[nH]cn1)C(=O)N[C@@H](CCCNC(=N)N)C(=O)N[C@@H](CC(C)C)C(=O)N[C@H](C(=O)N[C@@H](CCCNC(=N)N)C(=O)N[C@@H](CCCNC(=N)N)C(=O)N[C@@H](CCCNC(=N)N)C(=O)N[C@@H](CCCNC(=N)N)C(=O)N[C@@H](CCCNC(=N)N)C(=O)O)[C@@H](C)CC` [TP4, tilapia piscidin 4] (H-FIHHIIGGLFSAGKAIHRLIRRRRR-OH): the “expression of immune-related genes IL-1β, IL-6, IL-8 and MCP-8” value in series [2] is recorded as “down-regulation”. Moreover, in series [2] (peptide alone or co-injected with V. vulnificus, 12 hours after treatment), the “IL-1β, IL-6, IL-8 and Mcp-8 expression in spleen” value is recorded as “lower”. Besides, the “expression of TP2, TP3, TP4 or β-defensin antimicrobial peptide genes in liver” value in series [2] is “down-regulated”. The “decrease of antimicrobial activity” value in series [4] (pepsin 0.1 μg/ml, 30 minutes) is listed as “eight-fold”; in series [4] (pepsin 1 μg/ml, 10 minutes), “two-fold”; in series [4] (trypsin 1 μg/ml, 10 minutes) it was “two-fold”; in series [4] (trypsin 1 μg/ml, 30 minutes), “four-fold”; in series [4] (trypsin 10 μg/ml, 10 minutes), “eight-fold”.
